Measured values as given in patent publication US10568874B2, “Indane-amines as PD-L1 antagonists” (CHEMOCENTRYX, INC., priority 2018, dated 2020).

The compounds below were run against human PD-L1 (Homo sapiens (Human), UniProt Q9NZQ7) (assay: Enzyme-Linked Immunosorbent Assay (ELISA), PD-1/PD-L1 binding). Conditions: plate-coated human PD-L1, biotinylated human PD-1.
Method: Plates were coated with 1 μg/mL of human PD-L1 (obtained from R&D) in PBS overnight at 4° C. The wells were then blocked with 2% BSA in PBS (W/V) with 0.05% TWEEN-20 for 1 hour at 37° C. The plates were washed 3 times with PBS/0.05% TWEEN-20 and the samples were diluted to 1:5 in dilution medium in the ELISA plates. Human PD-1 and biotin 0.3 μg/mL (ACRO Biosystems) were added and incubated for 1 hour at 37° C. then washed 3 times with PBS/0.05% TWEEN-20. A second block was added with 2% SA in PBS (W/V)/0.05% TWEEN-20 for 10 min at 37° C. and was washed 3 times with PBS/0.05% TWEEN-20. Streptavidin-HRP was added for 1 hour at 37° C. then washed 3 times with PBS/0.05% TWEEN-20. TMB substrate was added and reacted for 20 min at 37° C. A stop solution (2 N aqueous H2SO4) was added. The absorbance was read at 450 nm using a micro-plate spectrophotometer.

Chain of human PD-L1 (Q9NZQ7 19-239): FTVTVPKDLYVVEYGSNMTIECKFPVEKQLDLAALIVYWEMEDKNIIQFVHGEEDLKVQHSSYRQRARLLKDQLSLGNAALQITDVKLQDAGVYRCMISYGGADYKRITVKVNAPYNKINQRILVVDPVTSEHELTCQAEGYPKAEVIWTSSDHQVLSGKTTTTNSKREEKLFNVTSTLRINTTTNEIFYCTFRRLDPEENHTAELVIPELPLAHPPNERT

SMILES	IC50
CCOc1cc(NC2CCc3c(-c4cccc(OCCCN5CCC(F)CC5)c4C)cccc32)c(Cl)cc1CNC[C@@H]1CCC(=O)N1 (some centres unmarked)	5 to 500 nM
CCOc1cc(NC2CCc3c(-c4cccc(OCCCN5CCC(F)CC5)c4C)cccc32)c(Cl)cc1CN[C@H]1CCC(=O)NC1 (some centres unmarked)	500 to 20000 nM
CCOc1cc(NC2CCc3c(-c4cccc(OCCCN5CCC(C)(F)CC5)c4Cl)cccc32)c(Cl)cc1CN1CCC(O)CC1 (centres unmarked)	500 to 20000 nM
CCOc1cc(NC2CCc3c(-c4cccc(OCCCN5CCC(C)(F)CC5)c4Cl)cccc32)c(Cl)cc1CN[C@H]1CCC(=O)NC1 (some centres unmarked)	500 to 20000 nM
CCOc1cc(NC2CCc3c(-c4cccc(OCCCN5CCC(F)CC5)c4C)cccc32)c(Cl)cc1CN[C@@H](CO)C(=O)O (some centres unmarked)	5 to 500 nM
CCOc1cc(NC2CCc3c(-c4ccccc4F)cccc32)c(Cl)cc1CN[C@@H](CO)C(=O)O (stereo partly drawn) [(2S)-2-[[5-chloro-2-ethoxy-4-[[4-(2-fluorophenyl)indan-1-yl]amino]phenyl]methylamino]-3-hydroxy-propanoic Acid]	5 to 500 nM

The remaining lines, values ahead:

IC50	SMILES
5 to 500 nM	CCOc1cc(NC2CCc3c(-c4cccc(OCCCN5CCC(C)(F)CC5)c4C)cccc32)c(Cl)cc1CNC[C@@H]1CCC(=O)N1 (some centres unmarked)
500 to 20000 nM	CCOc1cc(NC2CCc3c(-c4cccc(OCCCN5CCC(C)(F)CC5)c4C)cccc32)c(Cl)cc1CN[C@H]1CCC(=O)NC1 (some centres unmarked)
